From US20240415869A1, “COMPOSITIONS, SYSTEMS, AND METHODS FOR TREATING CANCER USING TUMOR TREATING FIELDS (TTFIELDS) AND THIOREDOXIN/GLUTATHIONE INHIBITORS” (Novocure GmbH G, priority 2023, published 2024)
pEC50, pIC50, pKi: −log10 of the molar value.

Columns and labels:
glutathione reductase = target: T1, glutathione reductase (Homo sapiens, UniProt P00390); conditions: irreversible inhibitor; cited from earlier work
T1 sequence (P00390 44-522): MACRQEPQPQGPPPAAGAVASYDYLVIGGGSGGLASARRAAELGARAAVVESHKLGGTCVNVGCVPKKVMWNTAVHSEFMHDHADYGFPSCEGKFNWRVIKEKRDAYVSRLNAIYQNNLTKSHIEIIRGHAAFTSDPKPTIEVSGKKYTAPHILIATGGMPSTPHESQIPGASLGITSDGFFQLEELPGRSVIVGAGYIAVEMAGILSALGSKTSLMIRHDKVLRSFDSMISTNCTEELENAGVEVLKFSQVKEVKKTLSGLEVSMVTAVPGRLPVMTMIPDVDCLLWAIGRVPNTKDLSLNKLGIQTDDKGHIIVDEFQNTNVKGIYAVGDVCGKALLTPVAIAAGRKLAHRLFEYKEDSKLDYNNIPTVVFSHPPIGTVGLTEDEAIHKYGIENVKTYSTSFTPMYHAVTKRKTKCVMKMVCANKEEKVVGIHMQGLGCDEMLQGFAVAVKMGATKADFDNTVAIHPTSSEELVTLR

GSCs and GBM cell lines = conditions: lower IC50s for GSCs compared to GBM cell lines; cited from earlier work
[1] = system: glioblastoma stem cells (GSCs); assay: Auranofin plus TTFields in glioblastoma stem cells (Example 2); assay type: cell-based; conditions: combined with TTFields
Experimental: In vitro—To assess the effect of this trimodal therapy, GSCs are exposed to AU (auranofin, 0.50 μM), RT (3 Gy), TTFields, TTFields+AU, TTFields+RT, and the combination of all three treatments (AU+RT+TTFields). The GSCs are assessed for the following: (i) a neurosphere formation assay; (ii) ROS Intracellular levels; (iii) MitoTracker™ assessment of mitochondrial membrane potential; and (iv) TrXR1 and GSH activity assays.
In vivo—To further investigate the effect of ROS-inducing trimodal therapy (RT+AU+TTFields) in vivo, subcutaneous injections of GSCs 1123S and 528 stably transduced with luciferase are performed. GCSs are injected (3×10^5 cells 10 μl) to the right flank of mice. Treatment is started when tumors can be visualized by BLI upon injection of D-luciferin substrate. Blood is collected to monitor potential toxicities. The tumor is exposed to snap-freezing and then processed for WB and for tissue formalin fixation for further IHC analysis of p53, MGMT, and TrxR1-associated genes.

[2] = system: glioblastoma stem cells (GSCs); conditions: cited from earlier work
GBM cell lines = conditions: cited from earlier work
GBM cell lines and GSCs = conditions: cited from earlier work
wild-type human TrxR1 = target: T2, wild-type human TrxR1 (Homo sapiens, UniProt Q16881); conditions: cited from earlier work
T2 sequence (Q16881 151-649 limits assumed): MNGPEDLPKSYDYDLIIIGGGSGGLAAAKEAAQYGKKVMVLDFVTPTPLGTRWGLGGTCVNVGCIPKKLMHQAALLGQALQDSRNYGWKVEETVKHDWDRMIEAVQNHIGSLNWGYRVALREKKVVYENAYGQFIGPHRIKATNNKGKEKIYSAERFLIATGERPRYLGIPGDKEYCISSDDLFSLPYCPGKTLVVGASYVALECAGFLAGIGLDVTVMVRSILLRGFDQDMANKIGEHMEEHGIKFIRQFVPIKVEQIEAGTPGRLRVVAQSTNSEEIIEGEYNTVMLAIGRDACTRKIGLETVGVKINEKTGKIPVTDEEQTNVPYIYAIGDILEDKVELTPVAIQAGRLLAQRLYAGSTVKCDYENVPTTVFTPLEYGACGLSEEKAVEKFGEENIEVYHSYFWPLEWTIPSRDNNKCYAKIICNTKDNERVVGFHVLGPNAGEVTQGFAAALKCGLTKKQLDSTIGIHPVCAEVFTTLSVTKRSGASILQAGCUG

[3] = target: T3, glutathione peroxidase 4 (GPX4) (Homo sapiens, UniProt P36969); conditions: selective and covalent inhibitor; cited from earlier work
T3 sequence (P36969 1-197): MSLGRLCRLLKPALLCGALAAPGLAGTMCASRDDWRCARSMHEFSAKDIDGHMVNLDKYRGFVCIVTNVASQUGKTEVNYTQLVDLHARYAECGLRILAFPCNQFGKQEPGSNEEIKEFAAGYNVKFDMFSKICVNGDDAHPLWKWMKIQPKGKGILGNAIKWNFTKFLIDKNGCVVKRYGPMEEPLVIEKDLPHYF

mitochondrial toxicity = conditions: cited from earlier work
[4] = target: T4, cytosolic thioredoxin reductase 1 (TXNRD1) (Homo sapiens, UniProt Q16881); conditions: irreversible inhibitor; cited from earlier work
T4 sequence (Q16881 151-649 limits assumed): T2 sequence (Q16881 151-649 limits assumed)

cancer cells = conditions: piperlongumine combined with erastin; cited from earlier work

For `N[C@@H](CCC(=O)N[C@@H](CSc1ccc([N+](=O)[O-])cc1[N+](=O)[O-])C(=O)NCC(=O)O)C(=O)O` [(2,4-Dinitrophenyl)glutathione, S-(2,4-Dinitrophenyl)glutathione], the pKi (glutathione reductase) is given as 4.52.
In the case of `CC(=O)OC[C@H]1O[C@@H]([S-])[C@H](OC(C)=O)[C@@H](OC(C)=O)[C@@H]1OC(C)=O.CCP(CC)CC.[Au+]` [Auranofin], the cell survival (GSCs and GBM cell lines) is given as “decreased”, the “effect of combination of Auranofin and TTFields” value [1] is given as “synergistic effect” and the neurosphere formation ability [2] is given as “decreased”. The clonogenic potential (GBM cell lines) was “decreased”, the “intracellular ROS” value (GBM cell lines and GSCs; GBM cell lines and GSCs, auranofin alone) was “significantly increases” and the “ROS, combination with radiation therapy” value (GBM cell lines and GSCs; GSCs, auranofin with RT) was “synergistically increases”.
In the case of `O=c1c2ccccc2[se]n1CCn1[se]c2ccccc2c1=O` [Ethaselen, 1,2-[bis(1,2-benzisoselenazolone-3 (2H)-ketone)]ethane], the pIC50 (wild-type human TrxR1) is given as 6.30.
In the case of `Cc1onc(C(=O)N2CCN(C(c3ccc(Cl)cc3)c3ccc(Cl)cc3)CC2)c1[N+](=O)[O-]` [ML-210], the pEC50 [3] is given as 7.52.
In the case of `COc1ccc([N+](=O)[O-])c(S(=O)(=O)c2ccc(Cl)cc2)n1` [TRi-1], the mitochondrial toxicity (mitochondrial toxicity) is listed as “little mitochondrial toxicity for anticancer therapy” and the pIC50 [4] is listed as 7.92.
For `COc1cc(/C=C/C(=O)N2CCC=CC2=O)cc(OC)c1OC` [piperlongumine], the “effect of combination over either treatment alone” value (cancer cells) is given as “synergistic effect”.
